Test results as given in ChEMBL document CHEMBL5375968, “Peptide TK-HR from the Skin of Chinese Folk Medicine Frog Hoplobatrachus Rugulosus Accelerates Wound Healing via the Activation of the Neurokinin-1 Receptor” (J Med Chem, 2023).
Activity calls are given as the source filed them. The calls are words filed in the database; no cut-off is given here.

Key:
RAW264.7 [1] = test: Effect on total ERK level in mouse RAW264.7 cells at 2.5 to 20 uM incubated for 4 hrs by Western blot analysis; assay type: functional, cell-based; details: dose 2.5-20 µM
[2] = Induction of wound healing in BALB/c mouse model of full-thickness wounds at 50 ug/ml, TOP bid pretreated with Aprepitant for 2 hrs followed by compound administration measured after 8 days (reference value: 82.1 %); assay type: functional; details: dose 50 µg/ml, time 8 day
RAW264.7 [3] = test: Effect on total Smad2 level in mouse RAW264.7 cells at 2.5 to 20 uM incubated for 4 hrs by Western blot analysis; assay type: functional, cell-based; details: dose 2.5-20 µM
HaCaT [4] = test: Induction of cell migration in human HaCaT cells assessed as formation of filopodia extensions at 20 uM measured after 24 hrs by immunofluorescence microscopy; assay type: functional, cell-based
Mus musculus [5] = organism: Mus musculus; test: Induction of wound healing in BALB/c mouse model of full-thickness wounds assessed as increase in ratio of phosphorylated Smad3 level to total Smad3 level in wound skin at 50 to 200 ug/ml, TOP bid measured after 8 days by Western blot analysis; assay type: functional; details: dose 50-200 µg/ml, time 8.0 day
[6] = Induction of wound healing in BALB/c mouse model of full-thickness wounds at 200 ug/ml, TOP bid measured after 2 days (reference value: 30.4 %); assay type: functional; details: dose 200 µg/ml, time 2 day
HaCaT [7] = test: Induction of cell migration in Mitomycin C-treated human HaCaT cells assessed as healing rate at 20 uM measured after 48 hrs by scratch healing assay (reference value: 25.7 %); assay type: functional
RAW264.7 [8] = test: Induction of cell migration in mouse RAW264.7 cells incubated for 24 hrs by crystal violet staining based microscopy; assay type: functional; details: dose 5-20 µM
RAW264.7 [9] = test: Induction of phagocytosis in mouse RAW264.7 cells cultured with Escherichia coli ATCC 25922 assessed as number of engulfed bacteria at 10 uM incubated for 24 hrs followed by bacterial exposure measured after 1 hr by plate counting method (reference value: 225); assay type: functional; details: time 25 hrs
RAW264.7 [10] = test: Effect on total Smad3 level in mouse RAW264.7 cells at 2.5 to 20 uM incubated for 4 hrs by Western blot analysis; assay type: functional, cell-based; details: dose 2.5-20 µM
[11] = Induction of wound healing in BALB/c mouse model of full-thickness wounds assessed as increase in collagen deposition in wound sites at 50 to 200 ug/ml, TOP bid measured after 8 days by Masson's Trichome staining based analysis relative to control; assay type: functional; details: dose 50-200 µg/ml, time 8 day, at 50 to 200 µg/mL
Mus musculus [12] = organism: Mus musculus; test: Induction of wound healing in BALB/c mouse model of full-thickness wounds assessed as parallel alignment of collagen fibers at 50 to 200 ug/ml, TOP bid measured after 8 days by Masson's Trichome staining based analysis; assay type: functional; details: dose 50-200 µg/ml, time 8.0 day
Neutrophil [13] = test: Induction of phagocytosis in BALB/c mouse neutrophils cultured with CFSE-labeled Escherichia coli ATCC 25922 at 10 uM pretreated for 1 hr followed by bacterial exposure measured after 1.5 hrs by fluorescence microscopy; assay type: functional, cell-based; details: time 2.5 hrs
RAW264.7 [14] = test: Upregulation of phosphorylated Smad3 level in Aprepitant-treated mouse RAW264.7 cells at 2.5 to 20 uM incubated for 4 hrs by Western blot analysis; assay type: functional, cell-based; details: dose 2.5-20 µM
RAW264.7 [15] = test: Induction of cell migration in Aprepitant-treated mouse RAW264.7 cells at 5 to 20 uM incubated for 24 hrs by crystal violet staining based microscopy; assay type: functional; details: dose 5-20 µM
HUVEC [16] = test: Induction of cell migration in Mitomycin C-treated HUVEC cells assessed as healing rate at 20 uM measured after 48 hrs by scratch healing assay (reference value: 51.6 %); assay type: functional, Homo sapiens
Mus musculus [17] = organism: Mus musculus; test: Induction of wound healing in BALB/c mouse model of full-thickness wounds assessed as reduction in epidermal cells in wound skin at 50 ug/ml, TOP bid measured after 4 days by IHC analysis; assay type: functional, cell-based; details: dose 50.0 µg/ml, time 4.0 day
RAW264.7 [18] = test: Induction of phagocytosis in mouse RAW264.7 cells cultured with Escherichia coli ATCC 25922 assessed as number of surviving engulfed bacteria at 10 uM incubated for 24 hrs followed by bacterial exposure for 1 hr and further treated with gentamycin for 2 hrs by plate counting method (reference value: 37); assay type: functional
Mus musculus [19] = organism: Mus musculus; test: Induction of wound healing in BALB/c mouse model of full-thickness wounds assessed as alignment of collagen fibers close to normal skin at 50 to 200 ug/ml, TOP bid measured after 8 days by Masson's Trichome staining based analysis; assay type: functional; details: dose 50-200 µg/ml, time 8.0 day
[20] = Induction of TGF-beta1 level in mouse RAW264.7 cells at 20 uM incubated for 24 hrs by ELISA; assay type: functional
Aorta = test: Ex vivo angiogenic activity in C57BL/6 mouse aortic ring assessed as increase in sprouting by measuring vessel outgrowth area at 5 uM measured for 7 days by microscopic analysis relative to control; assay type: functional; details: time 7 day
RAW264.7 [21] = test: Cytotoxicity against mouse RAW264.7 cells assessed as cell viability at 5 to 40 uM incubated for 24 hrs by MTT assay; assay type: toxicity, cell-based; details: raw264.7, 24 h, dose 5-40 µM
HUVEC [22] = test: Induction of cell migration in HUVEC cells assessed as healing rate at 20 uM measured after 48 hrs by scratch healing assay (reference value: 57.2 %); assay type: functional, Homo sapiens
HUVEC [23] = test: Angiogenic activity in HUVEC cells assessed as increase in tube formation at 10 uM measured for 4 hrs by microscopic analysis relative to control; assay type: functional, Homo sapiens
Neutrophil [24] = test: Induction of phagocytosis in BALB/c mouse neutrophils cultured with CFSE-labeled Staphylococcus aureus ATCC 25923 at 10 uM pretreated for 1 hr followed by bacterial exposure measured after 1.5 hrs by fluorescence microscopy; assay type: functional, cell-based; details: time 2.5 hrs
Mus musculus [25] = organism: Mus musculus; test: Induction of wound healing in BALB/c mouse model of full-thickness wounds assessed as increase in phosphorylated Smad2 level in wound skin at 50 ug/ml, TOP bid measured after 4 days by Western blot analysis; assay type: functional; details: dose 50.0 µg/ml, time 4.0 day
Neutrophil [26] = test: Induction of cell migration in BALB/c mouse neutrophils incubated for 8 hrs by transwell migration assay; assay type: functional, cell-based; details: dose 5-40 µM
[27] = Induction of wound healing in BALB/c mouse model of full-thickness wounds at 50 ug/ml, TOP bid pretreated with Aprepitant for 2 hrs followed by compound administration measured after 2 days (reference value: 35.3 %); assay type: functional; details: dose 50 µg/ml, time 2 day
Staphylococcus aureus = test: Antimicrobial activity against Staphylococcus aureus ATCC 25923 assessed as microbial growth inhibition at 100 uM; assay type: functional, organism-based
Mus musculus [28] = organism: Mus musculus; test: Induction of wound healing in BALB/c mouse model of full-thickness wounds assessed as increase in epidermal layer re-constuction at 50 ug/ml, TOP bid measured after 8 days by H and E staining based analysis; assay type: functional; details: dose 50.0 µg/ml, time 8.0 day
HaCaT [29] = test: Induction of cell migration in human HaCaT cells assessed as actin stress fiber formation at peripheral side of cytoplasmic membrane at 20 uM measured after 24 hrs by immunofluorescence microscopy; assay type: functional, cell-based
Neutrophil [30] = test: Induction of cell migration in Aprepitant-treated BALB/c mouse neutrophils at 5 to 40 uM incubated for 8 hrs by transwell migration assay; assay type: functional, cell-based; details: dose 5-40 µM

Substance: H-KPNPDRFYGLM-NH2
- Activity (RAW264.7 [1]): inactive
- Activity [2]: 82.5%
- Activity (RAW264.7 [3]): inactive
- Activity (HaCaT [4]): Active
- Activity (Mus musculus [5]): inactive
- Activity [6]: 52.8%
- Activity (HaCaT [7]): 53%
- Activity (RAW264.7 [8]): Dose-Dependent Effect
- Activity (RAW264.7 [9]): 338
- Activity (RAW264.7 [10]): inactive
- Activity [11]: 197%
- Activity (Mus musculus [12]): Active
- Activity (Neutrophil [13]): Active
- Activity (RAW264.7 [14]): inactive
- Activity (RAW264.7 [15]): inactive
- Activity (HUVEC [16]): 78.7%
- Activity (Mus musculus [17]): Active
- Activity (RAW264.7 [18]): 25
- Activity (Mus musculus [19]): Active
- Activity [20]: 119.3 pg/mL
- Activity (Aorta): 77.6%
- Activity (RAW264.7 [21]): Non-Toxic
- Activity (HUVEC [22]): 83.4%
- Activity (HUVEC [23]): 139.5%
- Activity (Neutrophil [24]): Active
- Activity (Mus musculus [25]): Active
- Activity (Neutrophil [26]): Dose-Dependent Effect
- Activity [27]: 38.7%
- Activity (Staphylococcus aureus): inactive
- Activity (Mus musculus [28]): Active
- Activity (HaCaT [29]): Active
- Activity (Neutrophil [30]): inactive
